From US20240228504A1, “SUBSTITUTED TRICYCLIC AMIDES, ANALOGUES THEREOF, AND METHODS USING SAME” (Arbutus Biopharma Corporation, priority 2020, published 2024)

Each molecule was assayed on HBV rcDNA in HepDE19 cells (assay: HepDE19 assay with bDNA quantitation of HBV rcDNA). Settings: Hepatitis B virus, HepDE19, HepDE19 assay, inhibition of rcDNA formation, bDNA quantitation; read-out: DE-19bDNA EC50.
Assay type: cell-based, hepatitis B virus

**Q.** How did the EC50 turn out when `CN(C(=O)c1cccc(Oc2cccc(F)c2)c1)[C@@H]1COCc2[nH]c(=O)c3cc(F)c(F)cc3c21` [Compound 322, (S)-N-(8,9-Difluoro-6-oxo-1,4,5,6-tetrahydro-2H-pyrano[3,4-c]isoquinolin-1-yl)-3-(3-fluorophenoxy)-N-methylbenzamide] was run?
**A.** Its EC50 is 8100 nM.

**Q.** How did the EC50 turn out when `COc1ccc2[nH]c(C(=O)N(C)[C@@H]3COCc4[nH]c(=O)c5cc(F)c(F)cc5c43)cc2c1` [Compound 324, (S)-N-(8,9-Difluoro-6-oxo-1,4,5,6-tetrahydro-2H-pyrano[3,4-c]isoquinolin-1-yl)-5-methoxy-N-methyl-1H-indole-2-carboxamide] was run?
**A.** Its EC50 is 70 nM.

**Q.** How did the EC50 turn out when `CN(C(=O)c1cc2cc(Cl)ccc2[nH]1)[C@@H]1COCc2[nH]c(=O)c3cc(F)c(F)cc3c21` [Compound 325, (S)-5-chloro-N-(8,9-Difluoro-6-oxo-1,4,5,6-tetrahydro-2H-pyrano[3,4-c]isoquinolin-1-yl)-N-methyl-1H-indole-2-carboxamide] was run?
**A.** The EC50 was 20 nM.

**Q.** How did the EC50 turn out when `Cc1ccc2[nH]c(C(=O)N(C)[C@@H]3COCc4[nH]c(=O)c5cc(F)c(F)cc5c43)cc2c1` [Compound 326, (S)-N-(8,9-Difluoro-6-oxo-1,4,5,6-tetrahydro-2H-pyrano[3,4-c]isoquinolin-1-yl)-N,5-dimethyl-1H-indole-2-carboxamide] was run?
**A.** Its EC50 is 2500 nM.

**Q.** For `CN(C(=O)c1cc2cc(OC(F)(F)F)ccc2[nH]1)[C@@H]1COCc2[nH]c(=O)c3cc(F)c(F)cc3c21` [Compound 327, (S)-N-(8,9-Difluoro-6-oxo-1,4,5,6-tetrahydro-2H-pyrano[3,4-c]isoquinolin-1-yl)-N-methyl-5-(trifluoromethoxy)-1H-indole-2-carboxamide], which EC50 is on record?
**A.** Its EC50 is 1200 nM.

**Q.** For `CCc1ccc2[nH]c(C(=O)N(C)[C@@H]3COCc4[nH]c(=O)c5cc(F)c(F)cc5c43)cc2c1` [Compound 328, (S)-N-(8,9-Difluoro-6-oxo-1,4,5,6-tetrahydro-2H-pyrano[3,4-c]isoquinolin-1-yl)-5-ethyl-N-methyl-1H-indole-2-carboxamide], which EC50 is on record?
**A.** Its EC50 is 3100 nM.

**Q.** For `COc1cccc2[nH]c(C(=O)N(C)[C@@H]3COCc4[nH]c(=O)c5cc(F)c(F)cc5c43)cc12` [Compound 329, (S)-N-(8,9-Difluoro-6-oxo-1,4,5,6-tetrahydro-2H-pyrano[3,4-c]isoquinolin-1-yl)-4-methoxy-N-methyl-1H-indole-2-carboxamide], which EC50 is on record?
**A.** Its EC50 is 260 nM.

**Q.** For `Cc1cccc2[nH]c(C(=O)N(C)[C@@H]3COCc4[nH]c(=O)c5cc(F)c(F)cc5c43)cc12` [Compound 330, (S)-N-(8,9-Difluoro-6-oxo-1,4,5,6-tetrahydro-2H-pyrano[3,4-c]isoquinolin-1-yl)-N,4-dimethyl-1H-indole-2-carboxamide], which EC50 is on record?
**A.** Its EC50 is 10 nM.

**Q.** How did the EC50 turn out when `CCC(CC)C(=O)OC1OC[C@@H](N(C)C(=O)c2cc3cc(F)c(F)cc3[nH]2)c2c1[nH]c(=O)c1cc(F)c(F)cc21` (stereo partly drawn) [Compound 331, (1S)-1-(5,6-Difluoro-N-methyl-1H-indole-2-carboxamido)-8,9-difluoro-6-oxo-1,4,5,6-tetrahydro-2H-pyrano[3,4-c]isoquinolin-4-yl 2-ethylbutanoate] was run?
**A.** The EC50 was 10 nM.

**Q.** For `CN(C(=O)c1cc2oc(Cl)cc2[nH]1)[C@@H]1COCc2[nH]c(=O)c3cc(F)c(F)cc3c21` [Compound 332, (S)-2-Chloro-N-(8,9-difluoro-6-oxo-1,4,5,6-tetrahydro-2H-pyrano[3,4-c]isoquinolin-1-yl)-N-methyl-4H-furo[3,2-b]pyrrole-5-carboxamide], which EC50 is on record?
**A.** Its EC50 is 40 nM.

**Q.** With `CN(C(=O)c1cc2c(C#N)cc(F)cc2[nH]1)[C@@H]1COCc2[nH]c(=O)c3cc(F)c(F)cc3c21` [Compound 341, (S)-4-Cyano-N-(8,9-difluoro-6-oxo-1,4,5,6-tetrahydro-2H-pyrano[3,4-c]isoquinolin-1-yl)-6-fluoro-N-methyl-1H-indole-2-carboxamide] as the molecule, how does the EC50 read?
**A.** The EC50 was 30 nM.

**Q.** How did the EC50 turn out when `CCc1cc(F)cc2[nH]c(C(=O)N(C)[C@@H]3COCc4[nH]c(=O)c5cc(F)c(F)cc5c43)cc12` [Compound 342, (S)-N-(8,9-Difluoro-6-oxo-1,4,5,6-tetrahydro-2H-pyrano[3,4-c]isoquinolin-1-yl)-4-ethyl-6-fluoro-N-methyl-1H-indole-2-carboxamide] was run?
**A.** Its EC50 is 10 nM.

**Q.** How did the EC50 turn out when `CN(C(=O)c1cc2c(Cl)cc(F)cc2[nH]1)[C@@H]1COCc2[nH]c(=O)c3cc(F)c(F)cc3c21` [Compound 343, (S)-4-Chloro-N-(8,9-difluoro-6-oxo-1,4,5,6-tetrahydro-2H-pyrano[3,4-c]isoquinolin-1-yl)-6-fluoro-N-methyl-1H-indole-2-carboxamide] was run?
**A.** Its EC50 is 10 nM.

**Q.** How did the EC50 turn out when `Cc1cc(F)cc2[nH]c(C(=O)N(C)[C@@H]3COCc4[nH]c(=O)c5cc(F)c(F)cc5c43)cc12` [Compound 344, (S)-N-(8,9-Difluoro-6-oxo-1,4,5,6-tetrahydro-2H-pyrano[3,4-c]isoquinolin-1-yl)-6-fluoro-N,4-dimethyl-1H-indole-2-carboxamide] was run?
**A.** The EC50 was 10 nM.

**Q.** How did the EC50 turn out when `CN(C(=O)c1cc2cc(C#N)ccc2[nH]1)[C@@H]1COCc2[nH]c(=O)c3cc(F)c(F)cc3c21` [Compound 345, (S)-5-Cyano-N-(8,9-difluoro-6-oxo-1,4,5,6-tetrahydro-2H-pyrano[3,4-c]isoquinolin-1-yl)-N-methyl-1H-indole-2-carboxamide] was run?
**A.** The EC50 was 30 nM.

**Q.** With `CN(C(=O)c1cc2cc(S(C)(=O)=O)ccc2[nH]1)[C@@H]1COCc2[nH]c(=O)c3cc(F)c(F)cc3c21` [Compound 346, (S)-N-(8,9-Difluoro-6-oxo-1,4,5,6-tetrahydro-2H-pyrano[3,4-c]isoquinolin-1-yl)-N-methyl-5-(methylsulfonyl)-1H-indole-2-carboxamide] as the molecule, how does the EC50 read?
**A.** The EC50 was 6700 nM.

**Q.** Which EC50 does the source give for `CN(C(=O)c1cc2c(Cl)cccc2[nH]1)[C@@H]1COCc2[nH]c(=O)c3cc(F)c(F)cc3c21` [Compound 347, (S)-4-Chloro-N-(8,9-difluoro-6-oxo-1,4,5,6-tetrahydro-2H-pyrano[3,4-c]isoquinolin-1-yl)-N-methyl-1H-indole-2-carboxamide] here?
**A.** The EC50 was 10 nM.

**Q.** For `CN(C(=O)c1cc2ccc(Br)cn2c1)[C@@H]1COCc2[nH]c(=O)c3cc(F)c(F)cc3c21` [Compound 348, (S)-6-Bromo-N-(8,9-difluoro-6-oxo-1,4,5,6-tetrahydro-2H-pyrano[3,4-c]isoquinolin-1-yl)-N-methylindolizine-2-carboxamide], which EC50 is on record?
**A.** Its EC50 is 40 nM.

**Q.** How did the EC50 turn out when `CN(C(=O)c1cc2sc(Cl)cc2[nH]1)[C@@H]1COCc2[nH]c(=O)c3cc(F)c(F)cc3c21` [Compound 349, (S)-2-Chloro-N-(8,9-difluoro-6-oxo-1,4,5,6-tetrahydro-2H-pyrano[3,4-c]isoquinolin-1-yl)-N-methyl-4H-thieno[3,2-b]pyrrole-5-carboxamide] was run?
**A.** Its EC50 is 10 nM.

**Q.** Which EC50 does the source give for `CN(C(=O)c1cc2scc(Cl)c2[nH]1)[C@@H]1COCc2[nH]c(=O)c3cc(F)c(F)cc3c21` [Compound 350, (S)-3-chloro-N-(8,9-difluoro-6-oxo-1,4,5,6-tetrahydro-2H-pyrano[3,4-c]isoquinolin-1-yl)-N-methyl-4H-thieno[3,2-b]pyrrole-5-carboxamide] here?
**A.** Its EC50 is 70 nM.

**Q.** For `CN(C(=O)c1cc2c(CO)cc(F)cc2[nH]1)[C@@H]1COCc2[nH]c(=O)c3cc(F)c(F)cc3c21` [Compound 355, (S)-N-(8,9-Difluoro-6-oxo-1,4,5,6-tetrahydro-2H-pyrano[3,4-c]isoquinolin-1-yl)-6-fluoro-4-(hydroxymethyl)-N-methyl-1H-indole-2-carboxamide], which EC50 is on record?
**A.** The EC50 was 20 nM.

**Q.** `CN(C(=O)c1cc2cncc(Br)c2o1)[C@@H]1COCc2[nH]c(=O)c3cc(F)c(F)cc3c21` [Compound 356, (S)-7-Bromo-N-(8,9-difluoro-6-oxo-1,4,5,6-tetrahydro-2H-pyrano[3,4-c]isoquinolin-1-yl)-N-methylfuro[3,2-c]pyridine-2-carboxamide] was tested. Which EC50 did it give?
**A.** The EC50 was 1500 nM.

**Q.** For `CN(C(=O)c1ccc2c(Cl)nn(C(F)F)c2c1)[C@@H]1COCc2[nH]c(=O)c3cc(F)c(F)cc3c21` [Compound 357, (S)-3-Chloro-N-(8,9-difluoro-6-oxo-1,4,5,6-tetrahydro-2H-pyrano[3,4-c]isoquinolin-1-yl)-1-(difluoromethyl)-N-methyl-1H-indazole-6-carboxamide], which EC50 is on record?
**A.** Its EC50 is 30 nM.

**Q.** How did the EC50 turn out when `CN(C(=O)c1ccc2c(Cl)n(C(F)F)nc2c1)[C@@H]1COCc2[nH]c(=O)c3cc(F)c(F)cc3c21` [Compound 358, (S)-3-Chloro-N-(8,9-difluoro-6-oxo-1,4,5,6-tetrahydro-2H-pyrano[3,4-c]isoquinolin-1-yl)-2-(difluoromethyl)-N-methyl-2H-indazole-6-carboxamide] was run?
**A.** Its EC50 is 680 nM.

**Q.** For `CN(C(=O)c1ccc2c(c1)c(Cl)nn2C(F)F)[C@@H]1COCc2[nH]c(=O)c3cc(F)c(F)cc3c21` [Compound 359, (S)-3-chloro-N-(8,9-difluoro-6-oxo-1,4,5,6-tetrahydro-2H-pyrano[3,4-c]isoquinolin-1-yl)-1-(difluoromethyl)-N-methyl-1H-indazole-5-carboxamide], which EC50 is on record?
**A.** Its EC50 is 10 nM.

**Q.** Which EC50 does the source give for `CN(C(=O)c1ccc2nn(C(F)F)c(Cl)c2c1)[C@@H]1COCc2[nH]c(=O)c3cc(F)c(F)cc3c21` [Compound 360, (S)-3-Chloro-N-(8,9-difluoro-6-oxo-1,4,5,6-tetrahydro-2H-pyrano[3,4-c]isoquinolin-1-yl)-2-(difluoromethyl)-N-methyl-2H-indazole-5-carboxamide] here?
**A.** Its EC50 is 120 nM.

**Q.** With `CN(C(=O)c1ccc(Cl)c(Cl)c1)[C@@H]1COCc2[nH]c(=O)c3cc(F)c(F)cc3c21` [Compound 361, (S)-3,4-Dichloro-N-(8,9-difluoro-6-oxo-1,4,5,6-tetrahydro-2H-pyrano[3,4-c]isoquinolin-1-yl)-N-methylbenzamide] as the molecule, how does the EC50 read?
**A.** Its EC50 is 10 nM.

**Q.** For `CN(C(=O)c1cc2c(NS(C)(=O)=O)cc(F)cc2[nH]1)[C@@H]1COCc2[nH]c(=O)c3cc(F)c(F)cc3c21` [Compound 362, (S)-N-(8,9-Difluoro-6-oxo-1,4,5,6-tetrahydro-2H-pyrano[3,4-c]isoquinolin-1-yl)-6-fluoro-N-methyl-4-(methylsulfonamido)-1H-indole-2-carboxamide], which EC50 is on record?
**A.** The EC50 was 14000 nM.

**Q.** `CN(C(=O)c1cc2c(OC(F)(F)F)cccc2[nH]1)[C@@H]1COCc2[nH]c(=O)c3cc(F)c(F)cc3c21` [Compound 363, (S)-N-(8,9-Difluoro-6-oxo-1,4,5,6-tetrahydro-2H-pyrano[3,4-c]isoquinolin-1-yl)-N-methyl-4-(trifluoromethoxy)-1H-indole-2-carboxamide] was tested. Which EC50 did it give?
**A.** The EC50 was 20 nM.
